Measurements: PubChem BioAssay AID602156 (GNF / Scripps Winzeler lab, 2011)
Where “and” joins values, the source holds several entries; their conditions need not be identical. Identical values can stand only once. Calls of active or inactive are those of the source. The rule behind the calls is not given here.

System: P. yoelii liver stage in HepG2-A16-CD81EGFP, imaging
Assay: Plasmodium liver-stage growth inhibition, dose response, imaging, Malaria Box, P. yoelii, HepG2-A16-CD81EGFP (AID 602156);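 note: infected cells exposed to compound for 48 hours before fixation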

SMILES | IC50
CCCCSc1oc(C)nc1[P+](c1ccccc1)(c1ccccc1)c1ccccc1 | 82.1 nM
CCN(CC)c1ccc(N=Cc2ccc(Sc3nc4ccccc4s3)o2)cc1 | > 10000 nM (inactive)
CC[n+]1cc(-c2ccc(C)cc2)sc1C=C1Sc2ccccc2N1C | 4.5 nM
O=C(c1ccc2nc(N3CCCCC3)sc2c1)N1CCN(Cc2ccc3c(c2)OCO3)CC1 | > 9220 nM (inactive)
COc1ccc2nc(C)cc(Nc3ccc(Oc4ccc5ccccc5c4Cl)c(Cl)c3)c2c1 | 114 nM
CCn1c(/C=C/C=C2\N(C)c3ccccc3C2(C)C)[n+](Cc2ccccc2)c2ccccc21 | 6.76 nM
Cc1ccc(CSCc2ccc(C(=O)NC3CC3)o2)cc1 | 47.3 nM
Nc1ccc(-c2nc3cc(Oc4ccc(Oc5ccc6[nH]c(-c7ccc(N)cc7)nc6c5)cc4)ccc3[nH]2)cc1 | 319 nM
CCOC(=O)c1c[nH]c2ccc(OC)cc2c1=O | 293 nM and 135 nM
Cc1ccc(C2Sc3ccccc3NC3=C2C(=O)c2ccccc23)cc1 (configuration not stated) | 278 nM
CCCN(CCC)CCCNc1ccc(C(=O)Nc2ccc(C)c(F)c2)cc1[N+](=O)[O-] | 646 nM
CCc1ccccc1N=C1c2c(cccc2[N+](=O)[O-])C(=O)C1C(C)=O (configuration not stated) | 2030 nM
CCCC(=O)N1CCN(c2nc(Cc3ccccc3)c3c(c2C#N)CC(C)(C)OC3)CC1 | 348 nM
CCCCCCOc1ccc(NC(=O)c2cccs2)cc1 | 139 nM
COc1cc(C(=O)NCCc2ccccn2)ccc1OC1CCN(CC(c2ccccc2)c2ccccc2)CC1 | 1280 nM
CCOc1ccc2[nH]c(=O)c(CN(CCN(CC)CC)C(=S)NCCCN(CC)CC)cc2c1 | 2170 nM
CC1(C)N=C(N)N=C(N)N1c1ccc(I)cc1 | 10 nM
CCCCCCCCn1c(C)[n+](C)c2cc(Cl)c(Cl)cc21 | 419 nM
CC[n+]1c(/C=C/N(C)c2ccccc2)n(-c2ccccc2)c2ccc(-c3nc4ccccc4s3)cc21 | 14 nM
O=C(c1cccs1)N1CCN(c2ccc([N+](=O)[O-])c(NC3CC3)c2)CC1 | 692 nM
Nc1cccc(C(=O)Nc2ccc(Oc3cccc(Oc4ccc(NC(=O)c5cccc(N)c5)cc4)c3)cc2)c1 | 1760 nM
Cc1ccnc(NC(c2ccc3ccccc3c2)c2ccc3cccnc3c2O)c1 (configuration not stated) | 556 nM
CCOc1ccc(NC(=O)C(C)Sc2nc3ccccc3[nH]2)cc1 (configuration not stated) | > 10000 nM (inactive)
CCCc1ccc(C(=O)NC(=O)c2ccccc2O)cc1 | 4.18 nM
COc1ccccc1-n1c(C=Cc2cc(Br)ccc2O)nc2ccccc2c1=O | 4590 nM
CSc1nnc(-c2cccc([N+](=O)[O-])c2)n1Cc1ccccc1 | 2510 nM

SMILES | IC50
Cc1oc2c(c1C(=O)NCC1CCCO1)C(=O)c1ccccc1C2=O (configuration not stated) | 189 nM
c1ccc2cc3c(N4CCN(CCN5CCN(c6ccnc7cc8ccccc8cc67)CC5)CC4)ccnc3cc2c1 | 2910 nM
Cc1ccc(-c2c[n+]3c(n2-c2ccccc2)SCC3)cc1 | 1090 nM
Brc1ccc(-c2c[n+]3c(n2-c2ccccc2)SCC3)cc1 | 828 nM
N#Cc1ccc(NC(=O)NC2CC3CCCC(C2)N3CCc2ccccc2)cc1 (configuration not stated) | 497 nM
CCCCn1c(N=Nc2c(O)[nH]c3ccccc23)nc2c1c(=O)[nH]c(=O)n2C | > 10000 nM (inactive)
Cc1cc(NC(c2cccc(Br)c2)c2ccc3cccnc3c2O)no1 (configuration not stated) | 147 nM
O=C(Cc1ccccc1)NC(c1ccc(Cl)cc1)c1ccc2cccnc2c1O (configuration not stated) | 190 nM
CCCc1c(C)[nH]c2ccccc2c1=O | 279 nM
CCN1CCN(c2cc(C)c3cc(NC(=O)c4cc(OC)cc(OC)c4)ccc3n2)CC1 | 3740 nM
O=C(Nc1c2ccccc2nc2ccccc12)c1cc(Cl)ccc1O | 181 nM
Cc1cccc2c1[nH]c1nc(SCC(C)C)nnc12 | 152 nM
COc1ccc(CN2CCOc3ccc(C(C)(O)CN(C)C)cc3C2)cc1C (configuration not stated) | 67.5 nM
COc1ccc(Nc2nc(NCc3ccccc3)c3ccccc3n2)cc1 | 305 nM
CN(C)c1ccc(C(C=C2C=C(c3ccccc3)C=C(c3ccccc3)O2)=C2C=CC(=[N+](C)C)C=C2)cc1 | 51.9 nM
Cc1c(Cl)cccc1N1C(=O)C2C3c4ccccc4C(c4ccccc43)C2C1=O (configuration not stated) | > 10000 nM (inactive)
CCCCOc1ccc(C2C3CCCC=C3C(C#N)=C(N)C2(C#N)C#N)cc1 (configuration not stated) | > 10000 nM (inactive)
Nc1ccc(N2CCCCCC2)cc1 | 1950 nM
COc1cccc(NC(=O)Cn2c(C)c(C#N)c3ccccc32)c1 | > 9960 nM (inactive)
CCOC(=O)c1cnc2ccc(OC)cc2c1Cl | 410 nM
Oc1cccc2ccc[n+](CC(O)Cn3c4ccccc4c4ccccc43)c12 (configuration not stated) | 311 nM
CCCCN(CC)CCNC(=O)C1c2ccccc2C(=O)N(Cc2ccc(F)cc2)C1c1ccc(OC)cc1 (configuration not stated) | 89.1 nM
N#Cc1c2c(c(N3CCN(Cc4ccccc4)CC3)n3c1nc1ccccc13)CCC2 | > 10000 nM (inactive)
COc1ccc(C(NC(=O)c2cccnc2)c2cc(Cl)c3cccnc3c2O)cc1 (configuration not stated) | 542 nM
CCOC(=O)c1cn(CC)c2cc(N(C)CCc3ccc(OC)c(OC)c3)c(F)cc2c1=O | 42.1 nM
CCOC(=O)c1c[nH]c2c3c(ccc2c1=O)CCCC3 | 10.8 nM

SMILES | IC50
COc1cccc(N2C(N)=NC(N)=NC2(C)C)c1 | 29.5 nM
c1ccc(Cc2cc[n+](Cc3ccccc3)cc2)cc1 | 4520 nM
O=C1C2=C(Nc3ccccc3SC2c2ccc(OCc3ccccc3)cc2)c2ccccc21 (configuration not stated) | 58 nM
Cc1cc(C(=O)Nc2cnn(Cc3ccc(Cl)cc3Cl)c2)no1 | 335 nM
CCOC(=O)C1=C(C)NC2=C(C(=O)C(C(=O)OCC)C(c3ccc(OC)cc3)C2)C1c1ccc(OC)c(OC)c1 (configuration not stated) | 240 nM
CCCCCCN(C(=O)c1ccc(C(C)(C)C)cc1)C(CC)c1nc2ccccc2c(=O)n1-c1ccc(F)cc1 (configuration not stated) | > 6910 nM (inactive)
Cc1cccc(NC(=S)NC2CC3CCCC(C2)N3CCc2ccccc2)c1 (configuration not stated) | 277 nM
CN(Cc1ccccc1)C(=O)CSc1nc(NCc2ccccc2)c2ccccc2n1 | 7.13 nM
C[C@@H]1C[C@@H]([C@H](O)CC2CC(=O)NC(=O)C2)C(=O)[C@@H](C)C1 | 78.1 nM
O=[N+]([O-])c1ccc(N2CCCN(C(=S)Nc3ccc(F)cc3Br)CC2)nc1 | 4620 nM
CCSc1ccc2ccccc2[n+]1CC | > 10000 nM (inactive)
O=c1c2c(nc3cc(-c4ccc(Br)cc4)[nH]n13)CCCC2 | 499 nM
COc1cccc(Nc2nc(NCCO)c3ccccc3n2)c1 | 62.3 nM
c1ccc(OCCOc2ccc(Nc3c4ccccc4nc4ccccc34)cc2)cc1 | 559 nM
O=C(Cn1ccc(=NCc2ccccc2)cc1)c1ccc(I)cc1 | 825 nM
Cc1ccc(N2C(N)=NC(N)=NC2(C)C)cc1 | 10 nM
CC(=O)N(C1=C(N2CCOCC2)C(=O)c2ccccc2C1=O)c1cccc(Cl)c1 | 744 nM
CCOC(=O)C1(CC)CC(C)(C(=O)C[n+]2cccc(Br)c2)OC1=O (configuration not stated) | > 10000 nM (inactive)
O=C(NC1CC1)C1CCN(c2cccc3c2C(=O)N(Cc2cccc(C(F)(F)F)c2)C3=O)CC1 | 29.3 nM
COc1cc(C(=O)Nc2ccc3nc4n(c(=O)c3c2)CCCCC4)cc(OC)c1OC | > 10000 nM (inactive)
CCCCNC(=O)C1CCC(CN(Cc2c(Cl)cccc2Cl)S(=O)(=O)c2ccc(Br)cc2)CC1 (configuration not stated) | 124 nM
c1ccc2c(NCCc3cnc[nH]3)c3ccccc3nc2c1 | 706 nM
CC(C)NCC(O)Cn1c2ccc(Cl)cc2c2cc(Cl)ccc21 (configuration not stated) | 2970 nM
Oc1c(C(Nc2ccccn2)c2cccc(Cl)c2Cl)ccc2cccnc12 (configuration not stated) | 402 nM
CCOC(=O)c1c[nH]c2ccc(C(C)C)cc2c1=O | 352 nM
